Laboratory results: US12685726B2, “Sulfoximines as inhibitors of NaV1.8” (Gruenenthal GmbH, priority 2022, dated 2026)

target: T1, human NaV 1.8 (Homo sapiens, UniProt Q9Y5Y9); test: Automated whole-cell patch clamp (Qube384) voltage-clamp recordings of sodium currents in HEK-NaV1.8 cell line; type: cell-based; conditions: read-out: Potency category (human NaV 1.8 IC50)
T1 construct: expressed in transfected cells; host or cells: HEK (recombinant cell line)
Experimental: Electrophysiology: Voltage-Clamp Recordings
The following NaV1.8 recombinant cell line was used for recordings: HEK-NaV1.8 (NM_006514.1) with b3 (NM_018400.3).
Sodium currents were measured using the patch clamp technique in the whole-cell configuration using the Qube384 (Sophion A/S, Copenhagen, Denmark) automated voltage clamp platform. “Multi hole” plates were used for the cell line expressing NaV1.8 while “single hole” plates were used for the recombinant cell lines expressing the other subtypes. Appropriate filters (for minimum seal resistance and minimum current size) and series resistance compensation (for high quality sodium channel recordings) were applied. Data was collected at ambient room temperature or 19° C.
The recording extracellular solution contained (in mM): NaCl 145 mM, KCl 4 mM, CaCl2 2 mM, MgCl2 1 mM, HEPES 10 mM, Glucose 10 mM, pH 7.4 (NaOH). The intracellular recording solution contained (in mM): CsF 120 mM, CsCl 20 mM, NaCl 10 mM, EGTA 10 mM, HEPES 10 mM, pH 7.2 (CsOH). Currents were recorded at 25 kHz sampling frequency and filtered at 5 kHz. Series resistance compensation was applied at 65%.
Vehicle (VEH) is the control condition where cells are exposed to 0.3% DMSO without compound. All runs include VEH controls being exposed to the same voltage protocols to assess non-compound related phenomena such as run down and then used to isolate compound dependent effects on currents.
To check for state-dependent inhibition, the following voltage-sequence was applied every 20 seconds:
From a resting membrane potential of −120 mV, the first test pulse (P1; 20 ms to −10 mV) was applied to check for channels in the Resting State followed by a brief recovery (100 ms to −120 mV), then holding the membrane voltage to V1/2 (4 seconds at voltage to obtain half the channel at Rest and half Inactivated) with a subsequent second test pulse (P2; 20 ms to −10 mV) to check for channels in the Inactivated State, followed by another brief recovery (20 ms to −120 mV) and a final third test pulse (P3; 20 ms to −10 mV) to check for recovered channels.
To check for frequency-dependent inhibition, a 10 Hz protocol and a 20 Hz protocol were applied; namely,
From a resting membrane potential of −120 mV, 40-pulses (10 ms to −10 mV) was applied at 10 Hz (at 100 ms between pulses) and then at 20 Hz (at 50 ms between pulses).
Each parameter was recorded (P1, P2, P3, P40 from 10 Hz and P40 from 20 Hz) during a control period (lasting 5 minutes) when establishing the baseline and during compound period (lasting ~12 minutes) when test compound (or vehicle) was applied. For each parameter, the value at the end of the compound period was normalized to the vehicle baseline; as follows
To adjust for any variance in the Na^+ current signal during the compound period (owing to cumulative inactivation independent of compound or shifts in biophysics over time), a dedicated segment of the recording wells in each 384 plate were dedicated to having only vehicle exposure. These vehicle-only recordings were used to correct for any apparent “run-up” or “run-down” in the experiment.
The adjusted inhibition was calculated as follows: […]
Percent inhibition was determined and IC50 values were calculated using a 4 parameter logistic model within XLFit Software (IDBS, Boston MA): F
[formula] where A and B are the maximal and minimum inhibition respectively, C is the IC50 concentration and D is the (Hill) slope.

T1 sequence (Q9Y5Y9 whole entry): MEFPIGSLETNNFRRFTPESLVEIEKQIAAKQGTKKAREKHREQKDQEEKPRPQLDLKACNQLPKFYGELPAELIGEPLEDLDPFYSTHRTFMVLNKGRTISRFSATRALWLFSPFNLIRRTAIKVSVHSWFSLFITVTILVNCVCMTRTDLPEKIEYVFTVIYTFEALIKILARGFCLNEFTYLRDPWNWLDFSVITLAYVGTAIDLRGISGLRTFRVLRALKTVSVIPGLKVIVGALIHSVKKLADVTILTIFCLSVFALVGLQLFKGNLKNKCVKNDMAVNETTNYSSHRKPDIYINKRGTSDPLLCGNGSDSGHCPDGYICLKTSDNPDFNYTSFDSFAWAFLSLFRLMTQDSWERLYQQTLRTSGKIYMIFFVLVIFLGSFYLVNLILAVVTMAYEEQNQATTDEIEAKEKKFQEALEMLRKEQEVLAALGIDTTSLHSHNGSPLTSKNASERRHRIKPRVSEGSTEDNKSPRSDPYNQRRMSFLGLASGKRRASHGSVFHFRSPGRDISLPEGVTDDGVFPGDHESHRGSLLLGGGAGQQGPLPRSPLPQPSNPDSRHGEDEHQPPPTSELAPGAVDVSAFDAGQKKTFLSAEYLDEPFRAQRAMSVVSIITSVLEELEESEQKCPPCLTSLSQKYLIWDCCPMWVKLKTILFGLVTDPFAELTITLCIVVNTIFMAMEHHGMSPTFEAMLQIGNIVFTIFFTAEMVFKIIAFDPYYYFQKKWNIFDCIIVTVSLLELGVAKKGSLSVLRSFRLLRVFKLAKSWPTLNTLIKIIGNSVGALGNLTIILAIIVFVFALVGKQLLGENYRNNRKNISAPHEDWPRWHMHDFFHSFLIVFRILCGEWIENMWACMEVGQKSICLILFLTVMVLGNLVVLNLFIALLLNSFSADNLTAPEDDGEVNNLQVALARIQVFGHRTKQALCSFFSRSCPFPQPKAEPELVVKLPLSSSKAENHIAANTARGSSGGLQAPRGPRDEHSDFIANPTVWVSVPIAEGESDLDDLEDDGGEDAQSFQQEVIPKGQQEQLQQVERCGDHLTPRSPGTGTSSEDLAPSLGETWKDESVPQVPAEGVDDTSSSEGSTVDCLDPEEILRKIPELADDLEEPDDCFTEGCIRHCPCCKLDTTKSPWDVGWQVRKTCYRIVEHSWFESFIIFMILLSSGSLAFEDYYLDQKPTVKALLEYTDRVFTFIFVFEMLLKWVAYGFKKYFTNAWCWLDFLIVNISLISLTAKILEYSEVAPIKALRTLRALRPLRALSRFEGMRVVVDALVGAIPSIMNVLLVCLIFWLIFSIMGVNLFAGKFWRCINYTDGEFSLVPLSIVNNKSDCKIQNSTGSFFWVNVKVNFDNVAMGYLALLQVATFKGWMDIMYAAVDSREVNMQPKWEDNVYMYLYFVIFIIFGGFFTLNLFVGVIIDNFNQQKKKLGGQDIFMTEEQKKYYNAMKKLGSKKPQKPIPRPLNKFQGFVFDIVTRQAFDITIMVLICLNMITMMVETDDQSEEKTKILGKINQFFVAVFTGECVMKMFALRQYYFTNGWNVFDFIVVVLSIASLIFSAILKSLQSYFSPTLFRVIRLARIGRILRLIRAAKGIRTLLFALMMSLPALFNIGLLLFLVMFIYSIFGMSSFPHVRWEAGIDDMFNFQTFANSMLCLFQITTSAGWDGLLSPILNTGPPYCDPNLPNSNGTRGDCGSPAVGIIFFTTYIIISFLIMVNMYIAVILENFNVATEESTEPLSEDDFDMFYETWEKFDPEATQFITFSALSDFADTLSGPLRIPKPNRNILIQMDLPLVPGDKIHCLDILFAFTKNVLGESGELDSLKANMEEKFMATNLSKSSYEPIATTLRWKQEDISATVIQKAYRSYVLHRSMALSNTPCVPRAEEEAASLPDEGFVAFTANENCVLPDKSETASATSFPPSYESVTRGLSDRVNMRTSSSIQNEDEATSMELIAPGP

Row | SMILES | IC50 [nM]
1 | CC1(Cn2nc(C3(F)CC3)c(C(F)(F)F)c2C(=O)Nc2cccc(S(C)(=N)=O)c2)CC(F)(F)C1 (single isomer, unassigned) [Example 109b, 1-((3,3-Difluoro-1-methylcyclobutyl)methyl)-3-(1-fluorocyclopropyl)-N-(3-(S-methylsulfonimidoyl)phenyl)-4-(trifluoromethyl)-1H-pyrazole-5-carboxamide] | ≤ 100
2 | CC(F)(F)c1nn(CC2CC(F)(F)C2)c(C(=O)Nc2ccnc(S(C)(=N)=O)c2)c1C(F)(F)F (centres unmarked) [Example 3, 1-((3,3-Difluorocyclobutyl)methyl)-3-(1,1-difluoroethyl)-N-(2-(S-methylsulfonimidoyl)pyridin-4-yl)-4-(trifluoromethyl)-1H-pyrazole-5-carboxamide] | ≤ 100
3 | CS(=N)(=O)c1cc(NC(=O)c2c(C(F)(F)F)c(C3CC3)nn2C[C@@H]2CCC(F)(F)C2)ccn1 (single isomer, unassigned) [Example 17c] | ≤ 100
4 | CS(=N)(=O)c1cc(NC(=O)c2c(C(F)(F)F)c(C3CC3)nn2CC2CCC23CNC3)ccn1 (single isomer, unassigned) [Example 153d, 1-((2-Azaspiro[3.3]heptan-5-yl)methyl)-3-cyclopropyl-N-(2-(S-methylsulfonimidoyl)pyridin-4-yl)-4-(trifluoromethyl)-1H-pyrazole-5-carboxamide] | 1000 to 10000
5 | C[S@@](=N)(=O)c1cc(NC(=O)c2c(C(F)(F)F)c(C3CC3)nn2C[C@H]2CC23CC3)ccn1 (single isomer, unassigned) [Example 78c, 3-cyclopropyl-N-(2-(S-methylsulfonimidoyl)pyridin-4-yl)-1-(spiro[2.2]pentan-1-ylmethyl)-4-(trifluoromethyl)-1H-pyrazole-5-carboxamide] | ≤ 100
6 | C[S@@](=N)(=O)c1cc(NC(=O)c2c(C(F)(F)F)c(C3CC3)nn2C[C@@H]2C(F)(F)C23CC3)ccn1 (single isomer, unassigned) [Example 79c, 3-cyclopropyl-1-((2,2-difluorospiro[2.2]pentan-1-yl)methyl)-N-(2-(S-methylsulfonimidoyl)pyridin-4-yl)-4-(trifluoromethyl)-1H-pyrazole-5-carboxamide] | ≤ 100
7 | CC1(Cn2nc(C3(F)CC3)c(C(F)(F)F)c2C(=O)Nc2ccc(F)c(S(C)(=N)=O)c2)CC(F)(F)C1 (single isomer, unassigned) [Example 126a, 1-((3,3-Difluoro-1-methylcyclobutyl)methyl)-N-(4-fluoro-3-(S-methylsulfonimidoyl)phenyl)-3-(1-fluorocyclopropyl)-4-(trifluoromethyl)-1H-pyrazole-5-carboxamide] | ≤ 100
8 | C[C@@]1(Cn2nc(C3CC3)c(C(F)(F)F)c2C(=O)Nc2ccnc([S@@](C)(=N)=O)c2)CC(F)(F)C12CC2 (single isomer, unassigned) [Example 92d, 3-cyclopropyl-1-((6,6-difluoro-4-methylspiro[2.3]hexan-4-yl)methyl)-N-(2-(S-methylsulfonimidoyl)pyridin-4-yl)-4-(trifluoromethyl)-1H-pyrazole-5-carboxamide] | ≤ 100
9 | CC1(Cn2nc(C3CC3)c(C(F)(F)F)c2C(=O)Nc2ccnc(S(C)(=O)=NC#N)c2)CC(F)(F)C1 (single isomer, unassigned) [Example 142a, N-(2-(N-Cyano-S-methylsulfonimidoyl)pyridin-4-yl)-3-cyclopropyl-1-((3,3-difluoro-1-methylcyclobutyl)methyl)-4-(trifluoromethyl)-1H-pyrazole-5-carboxamide] | ≤ 100
10 | CC1(Cn2nc(C3(F)CC3)c(C(F)(F)F)c2C(=O)Nc2cc(F)cc(S(C)(=N)=O)c2)CC(F)(F)C1 (single isomer, unassigned) [Example 127b, 1-((3,3-Difluoro-1-methylcyclobutyl)methyl)-N-(3-fluoro-5-(S-methylsulfonimidoyl)phenyl)-3-(1-fluorocyclopropyl)-4-(trifluoromethyl)-1H-pyrazole-5-carboxamide] | ≤ 100
11 | CC1(Cn2nc(C3CC3)c(C(F)(F)F)c2C(=O)Nc2ccnc(S(C)(=N)=O)c2)CC(F)(F)C1 (single isomer, unassigned) [Example 1a, 3-cyclopropyl-1-((3,3-difluoro-1-methylcyclobutyl)methyl)-N-(2-(S-methylsulfonimidoyl)pyridin-4-yl)-4-(trifluoromethyl)-1H-pyrazole-5-carboxamide] | ≤ 100
12 | CC1(Cn2nc(C3CC34CC4)c(C(F)(F)F)c2C(=O)Nc2ccnc(S(C)(=N)=O)c2)CC(F)(F)C1 (single isomer, unassigned) [Example 64b, 1-((3,3-difluoro-1-methylcyclobutyl)methyl)-N-(2-(S-methylsulfonimidoyl)pyridin-4-yl)-3-(spiro[2.2]pentan-1-yl)-4-(trifluoromethyl)-1H-pyrazole-5-carboxamide] | ≤ 100
13 | CS(=N)(=O)c1cc(NC(=O)c2c(C(F)(F)F)c(C3CC3)nn2C[C@H]2CCC(F)(F)C2)ccn1 (single isomer, unassigned) [Example 17b] | ≤ 100
14 | CS(=N)(=O)c1cc(NC(=O)c2c(C(F)(F)F)c(C3CC3)nn2CC2CCC(F)(F)C2)ccn1 (single isomer, unassigned) [Example 7a, 3-cyclopropyl-1-((3,3-difluorocyclopentyl)methyl)-N-(2-(S-methylsulfonimidoyl)pyridin-4-yl)-4-(trifluoromethyl)-1H-pyrazole-5-carboxamide] | ≤ 100
15 | Cc1c(C(C)(F)F)nn(C[C@H]2C[C@@H](C(F)(F)F)C2)c1C(=O)Nc1ccnc(S(C)(=N)=O)c1 (single isomer, unassigned) [Example 31b, 3-(1,1-difluoroethyl)-4-methyl-N-(2-(S-methylsulfonimidoyl)pyridin-4-yl)-1-(((cis)-3-(trifluoromethyl)cyclobutyl)methyl)-1H-pyrazole-5-carboxamide] | ≤ 100
16 | CC1(Cn2nc(C3(F)CC3)c(C(F)(F)F)c2C(=O)Nc2cccc([S@@](C)(=O)=NC(=O)CO)c2)CC(F)(F)C1 [Example 151a] | ≤ 100
17 | C[C@H]1C[C@@H]1c1nn(CC2(C)CC(F)(F)C2)c(C(=O)Nc2ccnc([S@@](C)(=N)=O)c2)c1C(F)(F)F (single isomer, unassigned) [Example 65b, 1-((3,3-Difluoro-1-methylcyclobutyl)methyl)-3-((trans)-2-methylcyclopropyl)-N-(2-(S-methylsulfonimidoyl)pyridin-4-yl)-4-(trifluoromethyl)-1H-pyrazole-5-carboxamide] | ≤ 100
18 | C[S@](=N)(=O)c1cc(NC(=O)c2c(C(F)(F)F)c(C3CC3)nn2C[C@]2(C)C[C@H](C(F)(F)F)C2)ccn1 (single isomer, unassigned) [Example 86b, 3-cyclopropyl-1-(((trans)-1-methyl-3-(trifluoromethyl)cyclobutyl)methyl)-N-(2-(S-methylsulfonimidoyl)pyridin-4-yl)-4-(trifluoromethyl)-1H-pyrazole-5-carboxamide] | ≤ 100
19 | CC1(Cn2nc(C(C)(F)F)c(C(F)(F)F)c2C(=O)Nc2ccnc(S(C)(=N)=O)c2)CC(F)(F)C1 (single isomer, unassigned) [Example 75b, 1-((3,3-difluoro-1-methylcyclobutyl)methyl)-3-(1,1-difluoroethyl)-N-(2-(S-methylsulfonimidoyl)pyridin-4-yl)-4-(trifluoromethyl)-1H-pyrazole-5-carboxamide] | ≤ 100
20 | CC1(Cn2nc(C34CC(F)(C3)C4)c(C(F)F)c2C(=O)Nc2ccc(F)c(S(C)(=N)=O)c2)CC(F)(F)C1 (single isomer, unassigned) [Example 138b, 1-((3,3-Difluoro-1-methylcyclobutyl)methyl)-4-(difluoromethyl)-N-(4-fluoro-3-(S-methylsulfonimidoyl)phenyl)-3-(3-fluorobicyclo[1.1.1]pentan-1-yl)-1H-pyrazole-5-carboxamide] | ≤ 100
